From US9850493B2, “Biological methods for preparing a fatty dicarboxylic acid” (VERDEZYNE, INC., priority 2012, dated 2017)

Test: In vitro acyl-CoA oxidase activity assay of E. coli lysates
Format: biochemical, Candida strain ATCC20336
Details: wild type enzyme, FIG. 21
Text: Acyl-CoA oxidases from a range of organisms were cloned into the E. coli expression vector pET26b (EMD4Biosciences, Darmstadt, Germany), which contains a kanamycin resistance cassette. The source of the acyl-CoA oxidase, the name of the gene, the primers and restriction enzymes used to clone the acyl CoA oxidase coding sequence into pET26b and the coding sequence are described herein. The acyl CoA oxidase coding sequences were amplified by PCR using the appropriate primers designed from cDNA libraries, published cDNA or genomic DNA sequences corresponding to the organism. […]
To express an enzyme, a colony from each transformation of Rosetta cells was used to start a 5 ml overnight culture of LB containing the antibiotics kanamycin (to select for pET26b) and chloramphenicol (to select for a second plasmid found in Rosetta II cells that mediates improved translation of eukaryotic proteins expressed in E. coli) grown at 37° C. The next morning, the overnight culture was used to seed 30 ml of LB containing kanamycin and chloramphenicol to an OD600 reading of 0.1. […]
To test the activity of the acyl CoA oxidase, cells from the overnight induction were pelleted at 1046×g at 4° C. in 50 ml conical tubes. […] The spectrophotometer was set to read for 5 minutes at 500 nm, 30° C. […]

## Pox5: wild type acyl CoA oxidase Pox5 from Candida strain ATCC20336
  activity on C6 and C8 substrates: low activity
  substrate chain length of optimal activity: 12 to 18 carbons
